Test results taken from patent US10455835B2, “Fungicidal compositions for controlling leaf spots in sugar beets” (Dow AgroSciences LLC, priority 2012, dated 2019).

Test system: Cercospora beticola (CERCBE)
Experiment: Activity vs. sugar beet leaf spot on inoculated sugar beet plants (disease severity)
Assay type: in vivo
Settings: sugar beet 'HH88', factorial analysis across all rates and replicates
Method: Evaluation of Protectant Activity of Fungicide Mixtures vs. sugar beet leaf spot caused by Cercospora beticola (CERCBE). Sugar beet plants (variety ‘HH88’) were grown in soil-less Metro mix and trimmed regularly to maintain an uniform plant size prior to test. To prepare inoculum, dried diseased beet leaves were placed in a moist chamber overnight to promote sporulation. Spores were rinsed off leaves with distilled water, filtered through cheesecloth to remove plant debris, then adjusted to 4×10^4 spores/ml. Tween 20 was added at 3 drops per 100 ml. Sugar beet seedlings were inoculated 3 days prior to or 4 to 5 days after fungicide treatments. Inoculated plants were kept in a dew chamber at 22° C. for 48 hr then incubated in a greenhouse set at 24° C. under a clear plastic hood until disease symptoms were fully expressed. Disease severity was assessed on both treated and untreated plants.
The following fungicides were used for an efficacy example:
The efficacy of various formulations is shown in the table below wherein the values are percent disease severity. Results of the factorial analysis across all rates and replicates.

CC1COC(Cn2cncn2)(c2ccc(Oc3ccc(Cl)cc3)cc2Cl)O1 (centres unmarked) [difenconazole, 1H-1,2,4-Triazole, 1-((2-(2-chloro-4-(4-chlorophenoxy)phenyl)-4-methyl-1,3-dioxolan-2-yl)methyl)-]
percent disease severity (Ex. 1, 3DC (inoculated 3 days prior to fungicide treatment), untreated disease severity 23.0): 1.2 b percent | percent disease severity (Ex. 2, 5DP (inoculated 5 days after fungicide treatment), untreated disease severity 31.0): 2.2 b percent | percent disease severity (Ex. 3, 3DC (inoculated 3 days prior to fungicide treatment), untreated disease severity 48.0): 0.6 c percent | percent disease severity (Ex. 4, 4DP (inoculated 4 days after fungicide treatment), untreated disease severity 35.0): 2.5 b percent | percent disease severity (Ex. 5, 3DC (inoculated 3 days prior to fungicide treatment), untreated disease severity 26.0): 0.4 c percent
